Data: patent US8980832B2, “Use of fumaric acid derivatives for treating cardiac insufficiency, and asthma” (Biogen Idec International GmbH, priority 2003, dated 2015)
Structures can show the parent of a compound that is named as a salt.

Experiments:
[1] = test system: rat model of acute ischemia and reperfusion; experiment: acute ischemia and reperfusion model of the rat, size of the infarction; format: in vivo; conditions: 10 mg dimethyl fumarate in 0.02% DMSO iv at beginning of first occlusion; 45 min ischemia, 120 min reperfusion; vs control
Procedure: The effects of dimethyl fumarate were examined in the present experiment using the model of acute ischemia and reperfusion of the rat. For this purpose, healthy, male rats were divided into three groups with 17 animals each. In the tests, an ischemia was caused for 45 minutes through an occlusion of an artery with the heart being exposed and, subsequently, reperfusion was carried out for 120 minutes. Finally, a myocardial infarction was triggered by means of a reocclusion and the risk area was determined by means of dyeing with phthalocyanine blue. The administration of the test substance was carried out iv at the beginning of the first occlusion. The control group received 0.02% DMSO (0.5 ml/kg body weight), the DMF group received 10 mg dimethyl fumarate in 0.02% DMSO (0.5 ml/kg body weight). The animals were ischemically preconditioned in the second group (2 times 5 minutes each ischemia and reperfusion). The results are represented in FIG. 1.

Dahl-rats = experiment: left ventricular enddiastolic diameter in Dahl rats on high salt diet, echocardiography; format: in vivo, rat; conditions: 2x5 and 2x15 mg DMF/kg/d, 8 weeks of high salt diet
Procedure: Dahl-rats, which are salt sensitive, were administered varying dosages of DMF on a daily basis and put on a high salt diet. After 8 weeks of treatment the left ventricular enddiastolic diameters were measured for test and control groups by echocardiographic analysis. Groups measured were control (0 mg DMF; n=9); group 1 (2×5 mg DMF/kg/d; n=9) and group 2 (2×15 mg DMF/kg/d; n=11). […] Specifically, in the DMF groups the inner diameter of the left ventricle remained in the same range as at baseline (see FIG. 4). […] Importantly, dilatation of the left ventricle marks the transition from compensated hypertrophy to decompensated heart failure. Consequently, DMF delays the transition to heart failure, and thus prevents myocardial infarctions.

[2] = test system: BSM (bronchial smooth muscle) cells; experiment: inhibition of the PDGF-induced incorporation of 3H-thymidine in BSM cells (Example B); format: cell-based; conditions: 10^-5 M dimethyl fumarate; 0, 1, 5, 10 and 20 ng/ml PDGF; 24 h 3H-thymidine
Procedure: BSM (bronchial smooth muscle) cells were cultivated in RPMI, 0.3% albumin and 0.1% DMSO at 37° C. in the presence of 0, 1, 5, 10 and 20 ng/ml on PDGF with and without 10^−5 M dimethyl fumarate.
After a predetermined period of time, 5 μCi on ^3H-thymidine was added to the culture medium and incubation was continued for further 24 hours. The incorporation was finally stopped by means of centrifugation, removal of the supernatant, washing and lysis of the cells. The incorporation on ^3H-thymidine was measured by determining the radioactivity in the lysates in a liquid scintillation device in comparison to the control. The results are shown in FIG. 2 as percentage values as compared with the control (100%).

[3] = test system: Bronchial smooth muscle cells; experiment: PDGF-stimulated proliferation of bronchial smooth muscle cells, 3H-thymidine (Example C); format: cell-based; conditions: 10 ng/ml PDGF; 10^-5 M DMF; 36 h treatment + 8 h 3H-thymidine
Procedure: Bronchial smooth muscle cells were grown in 96 well plates until they reached 60-70% confluency. The cells were then starved for 48 h in serum free, 0.3% albumine containing RPMI medium. […] As a control untreated cells (buffer only) were used. Cells were treated for 36 h, whereafter 4 μCi of ^3H-thymidine was added for further 8 hours. The cells were lysed, DNA-incorporated ^3H-thymidine bound to filter membranes, and the incorporated cpm measured in a liquid scintillation device.

SMILES: COC(=O)/C=C/C(=O)OC [DMF, dimethyl fumarate]
- size of the infarction [1]: limited the size of the infarction to a statistically significant degree
- dilatation of the left ventricle (left ventricular enddiastolic diameter) (Dahl-rats): prevented the dilatation of the left ventricle after 8 weeks of high salt diet in dose dependent manner
- PDGF-induced 3H-thymidine incorporation [2]: this increase is significantly reduced
- cell proliferation, percentage of control (100%) [3]: 116±4%
